One assay has as its target T1, mMincle-Ig (Mus musculus, UniProt Q9R0Q8).
T1 construct: using soluble Mincle-Ig fusion-proteins; made in house
T1 sequence (Q9R0Q8 46-214 limits assumed): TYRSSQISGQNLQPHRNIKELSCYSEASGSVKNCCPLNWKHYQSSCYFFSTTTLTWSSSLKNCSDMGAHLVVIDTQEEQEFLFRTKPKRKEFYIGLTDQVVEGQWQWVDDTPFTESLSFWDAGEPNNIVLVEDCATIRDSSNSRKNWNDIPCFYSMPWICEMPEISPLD
In words: In vitro Mincle binding assay (ELISA) with mMincle-Ig fusion protein. Details: species or system murine. The note with it: plate-coated ligand 0.1 nmol/well. How it is done:
(§1) Preparation of ligand-coated plates: Brartemicin analogues 9a-9i, TDM (Carbosynth, Sigma Aldrich), and TDB^14 were dissolved in CHCl3:MeOH (2:1, 1 mM), diluted in isopropanol ([…]) and added to 96-well plates (20 μL/well). The solvents were evaporated and the coated plates were used immediately.
(§2) In vitro Mincle binding assay: The preparation of mMincle- and hMincle-Ig fusion proteins have been previously described. Plate-coated glycolipids 9a-i, TDB, and TDM were incubated with hMincle-Ig, mMincle-Ig, or hIgG1-Fc (Ig) [3 μg/mL in binding buffer (20 mM Tris-HCl, 150 mM NaCl, 1 mM CaCl2), 2 mM MgCl2, pH 7.0)]. Detection of bound protein was achieved via incubation with anti-hIgG-HRP followed by the addition of a colorimetric substrate and measurement of OD at 450 nm. Background was accounted for by subtracting the hIgG1-Fc OD450 values from fusion protein OD450 values
(§3) The synthesised brartemicin analogues prepared in Example 1 were first tested for their ability to bind to both human and murine Mincle in an enzyme-linked immunosorbent assay (ELISA) using soluble Mincle-Ig fusion-proteins (FIG. 1a).

The next assay relates to wild-type GM-CSF BMDMs. The assay can be described thus: Cytokine/chemokine production by wild-type GM-CSF BMDMs on ligand-coated plates. It counts as cell-based, C57BL/6 mice. The note with it: wild-type BMDMs, coated plates 0.1 or 1 nmol/well, 24 hours, ELISA. How it is done: as §1
Murine bone-marrow derived macrophages: For the preparation of murine bone-marrow derived macrophages, bone marrow cells were collected from the tibias and femurs of C57BL/6 mice and cultured (250,000 cells/mL) in complete RPMI media [RPMI-1640 (Gibco) with 10% heat inactivated fetal bovine serum (Gibco), 100 unit/mL penicillin-streptomycin (Gibco) and 2 mM Glutamax (Gibco)] supplemented with 50 ng/mL GM-CSF (clone X63/GM-CSF murine cells). Cells were incubated at 37° C. (5% CO2) for 8 days (cells fed by replacing half the media on days 3 and 6). On day 8, all media was removed and the cells were washed with Dulbecco's Phosphate-Buffered Saline (DPBS, Gibco) to remove any loosely-adherent cells. The BMDMs were harvested with StemPro Acutase (1 mL/well, 15 minutes at room temperature, Gibco) and seeded onto a pre-coated 96-well plate. The supernatant was collected and analysed for cytokine/chemokine production after 24 hours.
Cytokine analysis: IL-1β, IFN-γ, IL-6, TNF-α (BD Biosciences), IL-17, and MIP-2 (R&D) levels were determined via sandwich ELISA according to the manufacturer's instructions.
First, the ability of the compounds to activate GM-CSF BMDMs was determined by monitoring the secretion of the inflammatory cytokines TNF, IL-6, and IL-1β and the chemokine, MIP-2, in a ligand-coated plate assay (FIG. 2).
To gain insight into the capacity of the 2G-series of brartemicin analogues to induce an inflammatory immune response, the analogues were then screened for their ability to activate WT and Mincle^−/− BMDMs, with cellular activation being determined by the measurement of IL-1B using ELISA (FIG. 6).

In the next assay the target is T2, hMincle+FcRγ (Homo sapiens, UniProt Q9ULY5).
T2 construct: expressed in transfected cells; host or cells: 2B4-NFAT-GFP reporter cells
T2 sequence (Q9ULY5 1-219): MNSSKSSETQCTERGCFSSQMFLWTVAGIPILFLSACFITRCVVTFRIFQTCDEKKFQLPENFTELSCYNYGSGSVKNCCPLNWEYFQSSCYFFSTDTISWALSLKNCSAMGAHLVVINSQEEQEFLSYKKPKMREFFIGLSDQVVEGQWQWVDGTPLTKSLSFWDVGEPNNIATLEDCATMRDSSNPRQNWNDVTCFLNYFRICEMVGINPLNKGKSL
In words: 2B4-NFAT-GFP reporter cells expressing hMincle+FcRγ. It counts as cell-based. The note with it: ligand-coated plates 0.01, 0.1 or 1 nmol/well, 18 hours. How it is done: as §1
(§4) 2B4-NFAT-GFP reporter cells: 2B4-NFAT-GFP reporter cells expressing mMincle+FcRγ, hMincle+FcRγ, or FcRγ only have been previously described. […] The reporter cells were harvested, stained with propidium iodide, and analysed for NFAT-GFP expression using flow cytometry (FACS Calibur).
(§5) To determine whether the Mincle binding observed in Example 1 correlated with cellular activation, nuclear factor of activated T cells (NFAT)-green fluorescent protein (GFP) reporter cells expressing mMincle or hMincle coupled to FcRγ were stimulated using plates coated with TDM, TDB, brartemicin (9i), or analogues 9a-9h.
(§6) Activation of the reporter cells was measured through the production of GFP, which was monitored by flow cytometry (FIGS. 1b and 3c).
(§7) With the compounds 43a-h in hand, the ability of these analogues to bind and signal through Mincle was assessed (FIG. 5). Accordingly, NFAT-GFP reporter cells expressing mMincle+FcRγ, hMincle+FcRγ, or FcRγ-only were stimulated with the 2G-brartemicin analogues 43a-h, TDB, iPrOH, or the p-OC18H37 substituted analogue, 9f. Reporter cell activation was measured by the production of NFAT-GFP, which was analysed by flow cytometry.

For a further assay, the target named is T3, hMincle-Ig (Homo sapiens, UniProt Q9ULY5).
T3 construct: using soluble Mincle-Ig fusion-proteins; made in house
T3 sequence (Q9ULY5 41-219 limits assumed): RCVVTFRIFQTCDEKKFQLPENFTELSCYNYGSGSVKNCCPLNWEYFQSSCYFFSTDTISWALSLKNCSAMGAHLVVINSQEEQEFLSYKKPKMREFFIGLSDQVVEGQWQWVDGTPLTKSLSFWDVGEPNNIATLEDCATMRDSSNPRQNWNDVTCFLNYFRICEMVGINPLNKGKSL
The assay can be described thus: In vitro Mincle binding assay (ELISA) with hMincle-Ig fusion protein. Conditions: plate-coated ligand 0.1 nmol/well. How it is done: as §1, §2, §3

The next assay addresses T4, mMincle+FcRγ (Mus musculus, UniProt Q9R0Q8).
T4 construct: expressed in transfected cells; host or cells: 2B4-NFAT-GFP reporter cells
T4 sequence (Q9R0Q8 1-214): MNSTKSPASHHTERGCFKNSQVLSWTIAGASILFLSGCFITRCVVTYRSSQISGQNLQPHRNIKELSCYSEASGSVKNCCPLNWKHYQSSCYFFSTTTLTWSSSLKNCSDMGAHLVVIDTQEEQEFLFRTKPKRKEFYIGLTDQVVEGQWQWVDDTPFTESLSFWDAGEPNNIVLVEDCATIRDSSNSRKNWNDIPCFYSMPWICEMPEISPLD
T4 sequence (P20491 19-86 partner): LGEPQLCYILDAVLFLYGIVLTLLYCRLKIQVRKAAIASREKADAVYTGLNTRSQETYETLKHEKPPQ
The assay can be described thus: 2B4-NFAT-GFP reporter cells expressing mMincle+FcRγ. It counts as cell-based, murine. The note with it: ligand-coated plates 0.01, 0.1 or 1 nmol/well, 18 hours. How it is done:
as §1, §4, §5, §6, §7

For the next assay, the system named is C57BL/6 mice. The assay can be described thus: Delayed-type hypersensitivity immunisation with OVA in oil-in-water emulsion. It is filed as in vivo. How it is done: Delayed-type hypersensitivity: Mice were sensitised by subcutaneous injection with oil-in-water emulsions (mineral oil/Tween-80/PBS, 9:1:90, v/v/v) containing OVA only (200 μg), OVA+TDB (OVA=200 μg, TDB=0.3 μmol), OVA+9a (OVA=200 μg, 9a=0.3 μmol) or no OVA. After seven days, the mice were challenged with OVA (100 μg/footpad) and after a further seven days, the mice were sacrificed and their spleens harvested. For in vitro restimulation, splenocytes were restimulated with OVA and analysed for spenocyte number (measured at 450 nm after 3 hours, Cell Count Reagent SF, Nacalai Tesque Inc.), IFN-γ production, and IL-17 production. Footpad swelling was measured using a venier caliper pre-challenge, 24 hours post-challenge, and 48 hours post-challenge. Sera were collected from each mouse on days 0, 7, and 14 and analysed for OVA-specific antibody titers by ELISA using HRP coupled goat anti-mouse IgG (GE Health-care), IgG1, IgG2b, IgG2c, and IgG3 (SouthernBiotec). EC50 were defined by plotting the absorbance at 450 nm against log of serum concentration. Antibody titration curves were plotted using GraphPad Prism7 (GraphPad Software).
Compound 9a was then evaluated in vivo to confirm its capacity to induce a Th1 antigen-specific response using a delayed-type hypersensitivity immunisation protocol. To this end, four groups of C57BL/6 mice were immunised by subcutaneous injection with oil-in-water emulsions containing either OVA only, OVA+C18dMeBrar (9a), OVA+TDB, or no OVA. After seven days the mice were challenged with OVA (100 μg per footpad) and after a further seven days, the splenocytes were isolated and restimulated with OVA at three concentrations (10, 30, or 100 μg/mL). The immune response was measured by determining footpad swelling, production of IFN-γ and IL-17 (FIG. 7b), T cell proliferation (FIG. 4a), and antibody titres (FIG. 4c). […] Accordingly, the ability of C18dMeBrar (9a) to lead to an enhanced Th1 immune response was even more striking. This overall immune profile was also reflected in the antibody production by immunised mice. […] A high IgG2c:IgG1 ratio is commonly associated with Th1 responses and a lower ratio is associated with Th2 responses. The production of IgG2c in mice immunised with C18dMeBrar increased three-fold as compared to OVA alone, providing evidence that C18dMeBrar induces a Th1-biased immune response.

Take `COc1ccc(C(=O)OCC2O[C@H](O[C@H]3OC(COC(=O)c4ccc(OC)cc4O)[C@@H](O)C(O)C3O)C(O)C(O)[C@@H]2O)c(O)c1` (stereo partly drawn) [9d, 6,6′-Di-O-(2-hydroxy-4-methoxybenzoyl)-α,α′-D-trehalose]: the “binding to mMincle-Ig (ELISA, OD at 450 nm)” value on mMincle-Ig is “did not bind hMincle- or mMincle-Ig to any great extent”. In the assay with wild-type GM-CSF BMDMs, the IL-1β production entry is listed as “did not induce the production of any of the cytokines measured”, the IL-6 production entry is reported as “did not induce the production of any of the cytokines measured”, the MIP-2 production entry is “did not induce the production of any of the cytokines measured” and the TNF production entry is given as “did not induce the production of any of the cytokines measured”. Also, the “activation of hMincle NFAT-GFP reporter cells (GFP by flow cytometry)” value at hMincle+FcRγ is “only modest activation of hMincle at a high ligand concentration”. Besides, at hMincle-Ig, the “binding to hMincle-Ig (ELISA, OD at 450 nm)” value was “did not bind hMincle- or mMincle-Ig to any great extent”.

Regarding `O=C(OCC1O[C@H](O[C@H]2OC(COC(=O)c3ccc(O)cc3O)[C@@H](O)C(O)C2O)C(O)C(O)[C@@H]1O)c1ccc(O)cc1O` (stereo partly drawn) [9e, 6,6′-Di-O-(2,4-dihydroxybenzoyl)-α,α′-D-trehalose], the “binding to mMincle-Ig (ELISA, OD at 450 nm)” value at mMincle-Ig is recorded as “did not bind hMincle- or mMincle-Ig to any great extent”. The “activation of mMincle NFAT-GFP reporter cells (GFP by flow cytometry)” value on mMincle+FcRγ was “did not significantly activate mMincle”. For the same compound, in the assay with wild-type GM-CSF BMDMs, the IL-1β production result is on record as “did not induce the production of any of the cytokines measured”, the IL-6 production entry is recorded as “did not induce the production of any of the cytokines measured”, the MIP-2 production result is recorded as “did not induce the production of any of the cytokines measured” and the TNF production entry is recorded as “did not induce the production of any of the cytokines measured”. Besides, the “binding to hMincle-Ig (ELISA, OD at 450 nm)” value at hMincle-Ig is “did not bind hMincle- or mMincle-Ig to any great extent”.

On to `CCCCCCCCCCCCCCCCCCCCCC(=O)OC[C@H]1O[C@H](O[C@H]2O[C@H](COC(=O)CCCCCCCCCCCCCCCCCCCCC)[C@@H](O)[C@H](O)[C@H]2O)[C@H](O)[C@@H](O)[C@@H]1O` [TDB, trehalose dibehenate, reference compound], for which, in the assay on wild-type GM-CSF BMDMs, the IL-1β production entry was “significant production”, the IL-6 production result was “significant production”, the MIP-2 production result was “significant production” and the TNF production entry was “significant production”. In addition, the “Th1 immune response / adjuvant activity in vivo” value with C57BL/6 mice (s.c. OVA 200 μg + adjuvant 0.3 μmol, oil-in-water emulsion) is listed as “limited efficacy”. In addition, the footpad swelling result in the assay on C57BL/6 mice (s.c. OVA 200 μg + adjuvant 0.3 μmol, OVA challenge 100 μg/footpad) is recorded as “neither 9a nor TDB induced any”. Moreover, in the assay on C57BL/6 mice (s.c. OVA 200 μg + adjuvant 0.3 μmol, restimulation 10, 30 or 100 μg/mL OVA), the “IL-17 production by splenocytes restimulated with OVA” value is “neither 9a nor TDB induced any”. For the same compound, the “antigen specific IFN-γ production, all concentrations of OVA” value in the assay on C57BL/6 mice (s.c. OVA 200 μg + adjuvant 0.3 μmol, splenocytes restimulated with 10, 30 or 100 μg/mL OVA) is listed as “did not lead to a significant increase”. For the same compound, in the assay on C57BL/6 mice (serum, ELISA), the IgG1 antibody production entry was “showed increases”, the IgG2b antibody production entry is “showed increases”, the IgG2c antibody production result is recorded as “showed increases” and the “production of OVA-specific IgG antibodies” value was “elevated the production of IgG antibodies”.

Turning to “trehalose dimycolate [TDM, reference compound]”, in the assay with wild-type GM-CSF BMDMs, the IL-1β production result is listed as “significant production”, the IL-6 production entry is given as “significant production”, the MIP-2 production result is “significant production” and the TNF production result is on record as “significant production”.

The values above are taken from US11510980B2, “Brartemicin analogues” (VICTORIA LINK LTD, priority 2017, dated 2022).
